The target of this assay is T1, mKv1.3 (Mus musculus, UniProt P16390).
T1 construct: expressed in transfected cells
Kind of assay: Whole-cell patch-clamp block of Kv1.3 currents. The assay is classed as cell-based. Conditions: L929 mouse fibroblasts stably expressing mKv1.3, room temperature, peak current at 40 mV, Hill fit, n = 3 cells per concentration, read-out: IC50 against Kv1.3. As to the method:
L929 mouse fibroblast cells stably expressing mKv1.3[32] were gifts from Dr. K. George Chandy (University of California, Irvine). They were maintained in DMEM medium (Invitrogen, Carlsbad, CA) supplemented with 100 IU/mL penicillin, […] streptomycin, 2 mM L-glutamine, 10% heat-inactivated foetal bovine serum, and 0.5 mg/mL G418 (EMD Chemicals, Gibbstown, NJ).
Electrophysiology experiments were conducted at room temperature in the whole-cell configuration of the patch-clamp technique on a Port-a-Patch setup (Nanion, North Brunswick, NJ) linked to a HEKA EPC10USB amplifier (HEKA Instruments, Bellmore, NY). A holding potential of −80 mV was used for all recordings. Pipette resistances averaged 2.0 MΩ when filled with internal solution containing (in mM): 145 KF, 10 HEPES, 10 EGTA, and 2 MgCl2, pH 7.2, 290 mOsm. Kv currents were elicited every 30 s by 200-ms depolarising pulses from a holding potential of −80 mV to 40 mV. Kv1.3 currents were recorded in normal Ringer solution containing (in mM): 160 NaCl, 4.5 KCl, 2 CaCl2, 1 MgCl2, and 10 HEPES, pH 7.2, 300 mOsm. IC50 values and Hill coefficients were determined by fitting the Hill equation to the reduction of peak current by the drug at 40 mV.
Figure S2. […] (a) Whole-cell Kv1.3 currents measured by whole-cell patch-clamp in stably transfected L929 fibroblasts before (control) and after perfusion of 10 pM and 100 nM NOTA-HsTX1[R14A]. […]

T1 sequence (P16390 whole entry): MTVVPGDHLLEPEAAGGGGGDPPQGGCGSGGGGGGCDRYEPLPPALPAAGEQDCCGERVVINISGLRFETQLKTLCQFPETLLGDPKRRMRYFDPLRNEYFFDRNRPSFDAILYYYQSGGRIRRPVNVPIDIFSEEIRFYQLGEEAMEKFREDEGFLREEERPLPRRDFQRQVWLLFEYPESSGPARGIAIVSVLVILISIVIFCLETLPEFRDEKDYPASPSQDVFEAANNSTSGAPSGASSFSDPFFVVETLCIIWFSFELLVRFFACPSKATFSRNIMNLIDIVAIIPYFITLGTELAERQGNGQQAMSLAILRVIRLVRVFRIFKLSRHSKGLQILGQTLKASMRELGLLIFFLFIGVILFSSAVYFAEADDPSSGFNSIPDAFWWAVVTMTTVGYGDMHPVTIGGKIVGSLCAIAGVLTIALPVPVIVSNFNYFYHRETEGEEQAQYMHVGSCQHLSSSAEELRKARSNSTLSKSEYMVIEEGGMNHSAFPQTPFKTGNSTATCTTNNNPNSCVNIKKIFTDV

By IC50 is commonly meant the midpoint of a concentration-inhibition curve. On to `CSCC[C@@H]1NC(=O)[C@@H]2CSSC[C@H](NC(=O)[C@H](CO)NC(=O)[C@H](C)NC(=O)COCCOCCNC(=O)CN3CCN(CC(=O)O)CCN(CC(=O)O)CC3)C(=O)N[C@@H](CCCNC(=N)N)C(=O)N[C@@H]([C@@H](C)O)C(=O)N3CCC[C@H]3C(=O)N[C@@H](CCCCN)C(=O)N[C@@H](CC(=O)O)C(=O)N[C@H]3CSSC[C@H](NC(=O)[C@H](CCCCN)NC(=O)[C@H](CCCNC(=N)N)NC(=O)[C@H](CC(N)=O)NC1=O)C(=O)N[C@@H](CCCCN)C(=O)N[C@H]1CSSC[C@H](NC(=O)[C@@H]4CCCN4C(=O)[C@H](CC(=O)O)NC(=O)[C@H](C)NC3=O)C(=O)N[C@@H](C)C(=O)N[C@@H](CCCCN)C(=O)N[C@@H](CCC(=O)O)C(=O)N[C@@H]([C@@H](C)O)C(=O)NCC(=O)N[C@@H](CSSC[C@@H](C(N)=O)NC(=O)[C@H](CCCNC(=N)N)NC(=O)[C@H](CC(N)=O)NC1=O)C(=O)N1CCC[C@H]1C(=O)N[C@@H](Cc1ccc(O)cc1)C(=O)NCC(=O)N[C@@H](CCCCN)C(=O)N2` [NOTA-HsTX1[R14A]], for which the IC50 worked out at 0.068 ± 0.012 nM.

The values are drawn from publication PMC5473807, “Distribution and kinetics of the Kv1.3-blocking peptide HsTX1[R14A] in experimental rats” (Scientific Reports, 2017).
